Measurements: the supplement of paper PMC10307832

Experiments:
Experiment in all cases: relative viability (nuclei count vs DMSO), 5 days (fraction); higher = more cells survive
NCI-H1666 = tested on: NCI-H1666
Outline: (§1)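 After 5 days of treatment, lung cancer cells in 1536-well plates were fixed and stained in a single step (final 0.05% Triton X-100, 1% formaldehyde, 1 ug/ml Hoechst) and their nuclei counted on 4× images. Treatment had been applied by pin tool the day after seeding as one drug alone or as a fixed anchor-drug dose with five library-drug doses (not always all listed) in √10 steps. Relative viability is the nuclei count of treated wells divided by that of vehicle wells, and values are medians of duplicate plates.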

LCLC-97TM1 = tested on: LCLC-97TM1
Outline: as §1

CAL-12T = tested on: CAL-12T
Outline: as §1

NCI-H838 = tested on: NCI-H838
Outline: as §1

NCI-H1651 = tested on: NCI-H1651
Outline: as §1

NCI-H1395 = tested on: NCI-H1395
Outline: as §1

NCI-H1355 = tested on: NCI-H1355
Outline: as §1

NCI-H2085 = tested on: NCI-H2085
Outline: as §1

NCI-H2087 = tested on: NCI-H2087
Outline: as §1

NCI-H322M = tested on: NCI-H322M
Outline: as §1

NCI-H358 = tested on: NCI-H358
Outline: as §1

NCI-H1915 = tested on: NCI-H1915
Outline: as §1

SK-MES-1 = tested on: SK-MES-1
Outline: as §1

UMC-11 = tested on: UMC-11
Outline: as §1

NCI-H661 = tested on: NCI-H661
Outline: as §1

LK-2 = tested on: LK-2
Outline: as §1

PC-14 = tested on: PC-14
Outline: as §1

NCI-H2228 = tested on: NCI-H2228
Outline: as §1

H3255 = tested on: H3255
Outline: as §1

A-427 = tested on: A-427
Outline: as §1

ABC-1 = tested on: ABC-1
Outline: as §1

PC-3 [JPC-3] = tested on: PC-3 [JPC-3]
Outline: as §1

NCI-H1792 = tested on: NCI-H1792
Outline: as §1

Molecule `O=c1[nH]c2ccccc2n1C1CCN(CCCC(c2ccc(F)cc2)c2ccc(F)cc2)CC1` [Pimozide] + N=C(N)NC(=N)NCCc1ccccc1 [Phenformin] (partner 250 µM) has a relative viability (NCI-H1666; first compound 0.08 µM) of 0.608, a relative viability (NCI-H1666; first compound 0.253 µM) of 0.5 and a relative viability (NCI-H1666; first compound 0.8 µM) of 0.597. For the same molecule, the relative viability (NCI-H1666; first compound 2.53 µM) was 0.555, the relative viability (NCI-H1666; first compound 8 µM) was 0.513 and the relative viability (LCLC-97TM1; first compound 0.08 µM) was 0.487. It also gave a relative viability (LCLC-97TM1; first compound 0.253 µM) of 0.403, a relative viability (LCLC-97TM1; first compound 0.8 µM) of 0.356 and a relative viability (LCLC-97TM1; first compound 2.53 µM) of 0.418. The relative viability (LCLC-97TM1; first compound 8 µM) was 0.413, the relative viability (CAL-12T; first compound 0.08 µM) was 0.581 and the relative viability (CAL-12T; first compound 0.253 µM) was 0.506. The relative viability (CAL-12T; first compound 0.8 µM) was 0.623, the relative viability (CAL-12T; first compound 2.53 µM) was 0.496 and the relative viability (CAL-12T; first compound 8 µM) was 0.575. It also gave a relative viability (NCI-H838; first compound 0.08 µM) of 0.609, a relative viability (NCI-H838; first compound 0.253 µM) of 0.636 and a relative viability (NCI-H838; first compound 0.8 µM) of 0.636. It also gave a relative viability (NCI-H838; first compound 2.53 µM) of 0.519, a relative viability (NCI-H838; first compound 8 µM) of 0.562 and a relative viability (NCI-H1651; first compound 0.08 µM) of 0.346. For the same molecule, the relative viability (NCI-H1651; first compound 0.253 µM) was 0.305, the relative viability (NCI-H1651; first compound 0.8 µM) was 0.316 and the relative viability (NCI-H1651; first compound 2.53 µM) was 0.338. For the same molecule, the relative viability (NCI-H1651; first compound 8 µM) was 0.283, the relative viability (NCI-H1395; first compound 0.08 µM) was 0.411 and the relative viability (NCI-H1395; first compound 0.253 µM) was 0.405. The relative viability (NCI-H1395; first compound 0.8 µM) was 0.411, the relative viability (NCI-H1395; first compound 2.53 µM) was 0.42 and the relative viability (NCI-H1395; first compound 8 µM) was 0.403. For the same molecule, the relative viability (NCI-H1355; first compound 0.08 µM) was 0.45, the relative viability (NCI-H1355; first compound 0.253 µM) was 0.435 and the relative viability (NCI-H1355; first compound 0.8 µM) was 0.437. The relative viability (NCI-H1355; first compound 2.53 µM) was 0.417, the relative viability (NCI-H1355; first compound 8 µM) was 0.404 and the relative viability (NCI-H2085; first compound 0.08 µM) was 0.681. It also gave a relative viability (NCI-H2085; first compound 0.253 µM) of 0.732, a relative viability (NCI-H2085; first compound 0.8 µM) of 0.58 and a relative viability (NCI-H2085; first compound 2.53 µM) of 0.705. The relative viability (NCI-H2085; first compound 8 µM) was 0.637, the relative viability (NCI-H2087; first compound 0.08 µM) was 0.5 and the relative viability (NCI-H2087; first compound 0.253 µM) was 0.47. For the same molecule, the relative viability (NCI-H2087; first compound 2.53 µM) was 0.464, the relative viability (NCI-H2087; first compound 8 µM) was 0.393 and the relative viability (NCI-H322M; first compound 0.253 µM) was 0.738. It also gave a relative viability (NCI-H322M; first compound 0.8 µM) of 0.766, a relative viability (NCI-H322M; first compound 2.53 µM) of 0.816 and a relative viability (NCI-H322M; first compound 8 µM) of 0.749. The relative viability (NCI-H358; first compound 0.08 µM) was 0.295, the relative viability (NCI-H358; first compound 0.253 µM) was 0.37 and the relative viability (NCI-H358; first compound 0.8 µM) was 0.366. It also gave a relative viability (NCI-H358; first compound 2.53 µM) of 0.313, a relative viability (NCI-H358; first compound 8 µM) of 0.327 and a relative viability (NCI-H1915; first compound 0.08 µM) of 0.363. It also gave a relative viability (NCI-H1915; first compound 0.253 µM) of 0.349, a relative viability (NCI-H1915; first compound 0.8 µM) of 0.349 and a relative viability (NCI-H1915; first compound 2.53 µM) of 0.366. The relative viability (NCI-H1915; first compound 8 µM) was 0.367, the relative viability (SK-MES-1; first compound 0.08 µM) was 0.628 and the relative viability (SK-MES-1; first compound 0.253 µM) was 0.619. The relative viability (SK-MES-1; first compound 0.8 µM) was 0.664, the relative viability (SK-MES-1; first compound 2.53 µM) was 0.587 and the relative viability (SK-MES-1; first compound 8 µM) was 0.603. It also gave a relative viability (UMC-11; first compound 0.08 µM) of 0.331, a relative viability (UMC-11; first compound 0.253 µM) of 0.333 and a relative viability (UMC-11; first compound 0.8 µM) of 0.344. It also gave a relative viability (UMC-11; first compound 2.53 µM) of 0.313, a relative viability (UMC-11; first compound 8 µM) of 0.245 and a relative viability (NCI-H661; first compound 0.08 µM) of 0.256. The relative viability (NCI-H661; first compound 0.253 µM) was 0.287, the relative viability (NCI-H661; first compound 0.8 µM) was 0.257 and the relative viability (NCI-H661; first compound 2.53 µM) was 0.263. It also gave a relative viability (NCI-H661; first compound 8 µM) of 0.257, a relative viability (LK-2; first compound 0.08 µM) of 0.501 and a relative viability (LK-2; first compound 0.253 µM) of 0.367. It also gave a relative viability (LK-2; first compound 2.53 µM) of 0.237, a relative viability (LK-2; first compound 8 µM) of 0.345 and a relative viability (PC-14; first compound 0.253 µM) of 0.451. The relative viability (PC-14; first compound 2.53 µM) was 0.4, the relative viability (PC-14; first compound 8 µM) was 0.517 and the relative viability (NCI-H2228; first compound 0.08 µM) was 0.371. For the same molecule, the relative viability (NCI-H2228; first compound 0.253 µM) was 0.293, the relative viability (NCI-H2228; first compound 0.8 µM) was 0.338 and the relative viability (NCI-H2228; first compound 2.53 µM) was 0.225. For the same molecule, the relative viability (NCI-H2228; first compound 8 µM) was 0.192, the relative viability (H3255; first compound 0.253 µM) was 0.37 and the relative viability (H3255; first compound 0.8 µM) was 0.387. The relative viability (H3255; first compound 2.53 µM) was 0.372, the relative viability (H3255; first compound 8 µM) was 0.4 and the relative viability (A-427; first compound 0.08 µM) was 0.368. The relative viability (A-427; first compound 0.253 µM) was 0.361, the relative viability (A-427; first compound 0.8 µM) was 0.36 and the relative viability (A-427; first compound 2.53 µM) was 0.238. It also gave a relative viability (A-427; first compound 8 µM) of 0.26, a relative viability (ABC-1; first compound 0.08 µM) of 0.265 and a relative viability (ABC-1; first compound 0.253 µM) of 0.258. For the same molecule, the relative viability (ABC-1; first compound 0.8 µM) was 0.227, the relative viability (ABC-1; first compound 2.53 µM) was 0.287 and the relative viability (ABC-1; first compound 8 µM) was 0.209. It also gave a relative viability (PC-3 [JPC-3]; first compound 0.08 µM) of 0.357, a relative viability (PC-3 [JPC-3]; first compound 0.253 µM) of 0.469 and a relative viability (PC-3 [JPC-3]; first compound 0.8 µM) of 0.451. For the same molecule, the relative viability (PC-3 [JPC-3]; first compound 2.53 µM) was 0.486, the relative viability (PC-3 [JPC-3]; first compound 8 µM) was 0.403 and the relative viability (NCI-H1792; first compound 0.08 µM) was 0.356. The relative viability (NCI-H1792; first compound 0.253 µM) was 0.314, the relative viability (NCI-H1792; first compound 2.53 µM) was 0.233 and the relative viability (NCI-H1792; first compound 8 µM) was 0.278.
